Measurements: patent US20220233556A1, “COMPOSITIONS AND METHODS FOR TREATING OPHTHALMIC CONDITIONS” (Medicon Pharmaceuticals, Inc., priority 2017, published 2022)

Assays:
[1] = Rabbit ocular PK study of PS emulsion (2% PS); format: in vivo, New Zealand rabbits; details: 2% PS emulsion, three 25 μL eye drops; PS and its metabolites
Method: A formulation includes 2% PS; 5% Propylene glycol, 10% Mineral oil, 4% Tween 60, 4% Tween 80, 10% (2-hydroxypropyl)-β-cyclodextrin (HP-β-CD). Preparation method (2 mL scale): Oil phase: weight PS into glass vial, add propylene glycol, stir at 50° C. to obtain a clear solution. Then add mineral oil, stir to obtain a clear solution. Water phase: Dissolve HP-β-CD, […] and Tween 80 into water. Add water phase into oil phase, probe-sonicate for 5 sec, 8 times, with 5 sec intervals. Resultant emulsion is filtrated through 0.22 μm filter.
Rabbit ocular pharmacokinetic (PK) study: PS was administered to New Zealand rabbits topically to the eye; as three 25 μL eye drops, 5 min apart. Rabbits were euthanized at eight specified time points between 0.25 to 16 h, ocular tissues were dissected and PS was extracted with acetonitrile and its tissue levels as well as those of its metabolites were determined by HPLC as described (Xie G. et al., Br J Pharmacol 165:2′52-2166; 2012).

[2] = Ocular PK study of PS nanoparticles (mPEG-PLA), topical eye drops; format: in vivo, New Zealand white rabbits; design: AUC(0-t) / AUC0-16h, cornea / AUC0-16h, conjunctiva: concentration or dose not given beside the values; details: PS and its metabolites
Method: Composition: ˜3.0-3.5% PS, 96.5˜97% methoxy poly(ethylene glycol)-poly(lactide) (mPEG-PLA).
Preparation Method: Oil phase: 150 mg of PS and 1 g of PEG-PLA (Akina, Inc) were dissolved in 20 mL dichloromethane (DCM). Water phase: 365 mg of sodium cholate were dissolved in 60 ml of purified water. 5 mL of the oil phase was gently added into 15 mL of the water phase in a 50 mL Eppendorf conical tube. To create an emulsion, we used robe sonication for 2 min at 75% output (Branson 150, Fisher Scientific™, USA); the watt output was 12-13. The emulsion was transferred into a 100 mL beaker and stirred overnight at 600 rpm in a chemical hood until the DCM was fully evaporated. This was followed by centrifugation at 14,000 rpm for 1 h (Dupont, RC-5C). Then, the supernatant was transferred to another tube into which 3 mL of PBS were added to resuspend the nanoparticles. The nanoparticle solution was centrifuged for 6-7 seconds to remove aggregates. This supernatant was the final preparation.
Ocular PK study: PS formulated in nanoparticles as above was administered topically as eye drops to New Zealand white rabbits. The biodistribution of PS in ocular tissues at the indicated time points post administration was determined by HPLC.

corneal sensitivity = experiment: Corneal touch threshold (CTT) assay, Cochet-Bonnet aesthesiometer; format: in vivo, rabbits; details: commercially available form, one eye drop
Method: FIGS. 10A and 10B illustrate the ocular analgesic effect of PS. FIG. 10A: One drop of PS 0.5%, vehicle, or lidocaine was applied to one eye of rabbits (n=4/group) and the corneal touch threshold (CTT) was determined using an Eshesiometer. Vehicle had no effect on CTT (not shown; overlaps with the 0 value horizontal line). Values=mean±SEM. FIG. 10B: PS 0.5% in formulations differing in pH as indicated produced different analgesic responses in rabbits. The areas under each curve (AUC), indicted in the figure, that quantify these responses vary by as much as >5 fold. Values are the average of 2; all were within 11% of each other.
FIGS. 11A and 11B illustrates the effect of various concentrations of PS on corneal sensitivity determined by the corneal touch threshold (CTT) assay. The CTT score is expressed as length of filament. Measurements were performed at the indicated time points after a single application of PS as an eye drop. Rabbits with normal or dry eyes were studied (n=6 eyes per group). Dry eyes were induced by Concanavalin A injection as described in the text. The % PS content in each study is shown. The numbers in parentheses indicate the corresponding value of the area under the curve. Values=mean±SEM.
FIGS. 12A and 12B illustrate the effect of various drugs on corneal sensitivity determined by the corneal touch threshold (CTT) assay described herein. Each drug was used in its commercially available form; one eye drop of each was applied. The numbers in parentheses indicate the corresponding value of the area under the curve. Values=mean±SEM.
The analgesic effect of PS was examined on the surface of the eye by determining the corneal touch threshold (CTT) using the Luneau Cochet-Bonnet Aesthesiometer (Western Ophthalmics, Lynwood, Wash.) an adjustable nylon monofilament with a defined diameter, which is applied in different lengths to the center of the cornea.
In this embodiment, the composition of the PS preparation was: 0.5% PS, 18% (2-hydroxypropyl)-β-cyclodextrin (HP-β-CD), 1-4% Tween 80. Preparation Method: HP-β-CD was dissolved in purified water maintained in a 50° C. water bath. PS was added into this solution and kept at 50° C. overnight with stirring at 500 rpm until PS was fully dissolved. Tween 80 was added into the PS HP-β-CD solution, which was then centrifuged at 3000 rpm for 10 min to remove undissolved particles. The supernatant was collected and pH was adjusted to the desired value using a NaOH solution. The analgesic effect of PS was examined as above.
The effect of PS and other compounds on corneal sensitivity was determined in rabbits with normal or dry eyes using the CTT assay as above; DED was induced by Concanavalin A as previously described. The CTT score, expressed as filament length in mm, of normal eyes was 5.56±0.11 mm (mean±SEM for this and subsequent values) and in dry eyes 4.17±0.12 mm; the difference between the two is statistically significant (p<0.0001).

Con A-induced dry eye = Con A-induced dry eye disease (DED) in rabbits: TBUT, tear osmolarity, STT, tear lactoferrin; format: in vivo, New Zealand White (NZW) rabbits; details: 1 week of treatment, comparison with ophthalmic NSAIDs (FIG. 5)
Method: Con A was injected under ultrasound guidance into all the lacrimal glands and the success of the injection was verified by a post-injection ultrasound image (see FIG. 1 and FIG. 2). […] This variation explains why the blind injections recommended in the original method are often unsuccessful. This was confirmed by mixing the Con A solution with methylene blue and tracking its course after injection. In about ⅓ of the cases, Con A ended up outside the gland.
Four parameters of efficacy were evaluated instead of the usual one or two. They include (a) the tear break up time (TBUT), determined using 0.2% fluorescein over the eye and recording the time taken to develop black dots, lines or obvious disruption of the fluorescein film; (b) tear osmolarity, measured using TearLab Osmolarity Test and following the manufacturer's instructions (TearLab Corp., San Diego, Calif.); (3) Schirmer tear test (STT), determined using Schirmer strips (EagleVision, Denville, N.J.) inserted between the cornea and the palpebral conjunctiva at the mid-point of the lower lid and measuring the length of moistened strip at 5 min; and (4) tear lactoferrin levels measured by ELISA kit (MyBiosource, San Diego, Calif.) following the instructions of the manufacturer. All four have been used in clinical practice and correlate with the clinical activity of the disease. The STT is the least reliable and, as result, it is clinically used less than half as frequently as TBUT.
The injections of Con A to the lacrimal glands were repeated weekly as needed. When longer than a 1-week periods of study are needed, repeat injections prolong dry eye for at least 3 weeks, making the originally acute model chronic.
PS Suppresses Con A—Induced Dry Eye in Rabbits. The effect of PS on dry eye was determined in New Zealand White (NZW) rabbits, 2-3 kg (Charles River Labs, Waltham, Mass.). These rabbits were housed singly in rooms with strict temperature (70±5° F.) and humidity (45±5%) control and acclimated for at least 2 weeks prior to induction of dry eye by injection of Con A as above. NZW rabbits with Con A-induced dry eye (three sets of injections) were treated with PS formulated as nanoparticles and administered topically as eye drops 3×/day for 21 days, starting on the day of Con A injection. […] Similar results were obtained on days 5 and 14 (data not shown). […]
The efficacy of lower concentrations of PS. The efficacy of lower concentrations of PS, 0.1% and 0.2% in DED, was also evaluated. The same animal model (rabbits with Concanavalin A-induced DED) was used. The same methodology described herein was followed, except that PS was administered as two eye drops per eye (˜25 μL each) four times a day. PS was formulated in: 10% (2-hydroxypropyl)-β-cyclodextrin, 4% Tween 80, 2.5% Vitamin E TPGS, 1.4% polyvinyl alcohol (13,000-26,000 molecular weight), 0.001% polyquad, as described herein. The Table below summarizes the corresponding findings: […]

PGE2 = PGE2 levels in tears and cornea of rabbits (ELISA); format: in vivo; details: rabbits with Con A-induced DED, administered once topically, 1 h later
Method: FIGS. 9A and 9B illustrate that PS preserves the levels of PGE2 in tears and the cornea. In FIG. 9A, PGE2 levels were determined by ELISA in tears collected on day 7 from naïve rabbits and rabbits with Con A-induced DED treated for 1 week with vehicle or PS. In FIG. 9B, PGE2 levels were further examined. Upper panel: PGE2 levels in the tears of naïve rabbits and rabbits with Con A-induced DED treated for 1 h with PS or ketorolac as in Methods. Lower panel: PGE2 levels in the corneal tissue of naïve rabbits and rabbits with Con A-induced DED treated for 1 week with vehicle or PS or ketorolac or diclofenac. n=8 eyes/group. Values=mean±SEM.
It was determined that the levels of PGE2 in rabbit tears in three groups of rabbits, naïve and those with Con A-induced DED that were treated for 1 week either with PS or vehicle.
In an acute experiment, administered once topically to the eyes of four groups of rabbits with Con A-induced DED was one of the following: vehicle, PS, ketorolac or diclofenac; the latter two are NSAIDs used for the treatment of ocular inflammation and pain. It was determined that the levels of PGE2 in the cornea of these rabbits obtained 1 h later as well as in the corneas of naïve rabbits.

MMPs = experiment: MMP activity in the cornea of rabbits; format: in vivo; details: naïve rabbits, topical, 1 h
Method: FIGS. 8A and 8B illustrate that PS suppresses the levels and activity of MMPs. In FIG. 8A, the human conjunctival cells were treated with PS at 1×IC50 (TNF-α was added to the culture medium at a concentration of 10 ng/ml 2 h after PS. The levels of MMP-1 in the culture medium were determined by ELISA as in Methods (n=3). Values=mean±SEM. In FIG. 8B, two groups of rabbits with Con A-induced DED were treated with vehicle or PS for 1 week as in Methods. Naïve rabbits served as controls. MMP-9 levels in the ILG (top) and the aqueous humor (middle) were determined by ELISA. MMP activity was determined in the cornea of naïve and PS- or ketorolac-treated rabbits with Con A-induced DED as previously. n=8 eyes/group. Values=mean±SEM.
In an acute experiment, naïve rabbits were treated with either PS or ketorolac (both administered topically) for 1 h and determined the activity of MMP in the cornea. This assay determines the activity of MMPs collectively in a given tissue.

| Cmax, aqueous humor [1] [μm] | Cmax, conjunctiva [1] [μm] | Cmax, cornea [1] [μm] | Cmax, conjunctiva [2] [µM] | Cmax, cornea [2] [µM] | SMILES | effect on corneal sensitivity (CTT), dry eyes (corneal sensitivity) | effect on corneal sensitivity (CTT), normal eyes (corneal sensitivity) | also measured |
| --- | --- | --- | --- | --- | --- | --- | --- | --- |
| 2.0 | 0.0 | 0.0 | 0 | 0.6 | CSc1ccc(/C=C2/C(C)=C(CC(=O)O)c3cc(F)ccc32)cc1 [sulindac sulfide] | – | – | – |
| – | – | – | – | – | Nc1c(CC(=O)O)cccc1C(=O)c1ccc(Br)cc1 [bromfenac, reference compound] | no analgesic effect | display analgesic efficacy | – |
| 1.0 | 4.2 | 8.7 | 3.8 | 3.6 | CC1=C(CC(=O)O)c2cc(F)ccc2/C1=C\c1ccc([S+](C)[O-])cc1 (centres unmarked) [sulindac, reference compound] | – | – | – |
| 0.0 | 0.8 | 4.0 | 1.6 | 1.3 | CC1=C(CC(=O)O)c2cc(F)ccc2/C1=C\c1ccc(S(C)(=O)=O)cc1 [sulindac sulfone] | – | – | AUC0-16h, conjunctiva [1]: 3.2 µM·h; AUC0-16h, cornea [1]: 24.4 µM·h; Tmax, aqueous humor [1]: 0.0 h; Tmax, conjunctiva [1]: 2.0 h; Tmax, cornea [1]: 4.0 h; AUC0-16h, conjunctiva [2]: 7.3 µM·h; AUC0-16h, cornea [2]: 10 µM·h; Tmax, cornea [2]: 4 h |
| – | – | – | – | – | O=C(c1ccccc1)c1ccc2n1CCC2C(=O)O (centres unmarked) [ketorolac, reference compound] | no analgesic effect | display analgesic efficacy | STT (Con A-induced dry eye): failed to improve; TBUT (Con A-induced dry eye): failed to improve; osmolarity (Con A-induced dry eye): failed to improve; PGE2 levels in the cornea (PGE2): suppressed nearly completely; suppression of the activity of MMPs in the cornea (MMPs): failed to affect |
| – | – | – | – | – | O=C(O)Cc1ccccc1Nc1c(Cl)cccc1Cl [diclofenac, reference compound] | – | – | STT (Con A-induced dry eye): failed to improve; TBUT (Con A-induced dry eye): failed to improve; osmolarity (Con A-induced dry eye): failed to improve; PGE2 levels in the cornea (PGE2): suppressed nearly completely |
| – | – | – | – | – | CS(=O)(=O)c1cccc(C[C@H](NC(=O)c2c(Cl)cc3c(c2Cl)CCN(C(=O)c2ccc4ccoc4c2)C3)C(=O)O)c1 [Lifitegrast, lifitegrast, reference compound] | lack any ocular analgesic effect | lack any ocular analgesic effect | – |
